{
  "source": "patent US5348743A",
  "about": "“Anti-pathogenically effective compositions comprising lytic peptides and hydrolytic enzymes” (priority 1993, dated 1994)",
  "key": {"beta-1,3-glucanase [1]": {"test_system": "beta-1,3-glucanase", "type": "biochemical, Phaseolus vulg. L. cv. saxa", "description": "(§1) Seeds of Phaseolus vulg. L. cv. saxa were grown in vermiculite under a 16 hr light: 8 hr dark regime at 20° C. Twelve day old bean plants were incubated in air-tight plastic chambers with a volume of 0.2 m^3. Control plants were incubated in identical chambers in ethylene-free air. After 48 hours, the primary leaves were harvested and frozen at -20° C.\n(§2) 0.6597 kg frozen leaf tissue was homogenized in 0.1M sodium citrate buffer at pH 5.0 (2 ml×g^-1 fresh weight) with a Turmix homogenizer at top speed. The homogenate was centrifuged (25 Min., 11000 g) and 100 ml of the supernatant were used as a crude enzyme preparation. The proteins in the remaining crude extract were precipitated by adding ammonium sulfate to 95% saturation. After centrifugation (30 min., 11000 g) the sediment was redissolved in 100 mM Tris/HCl pH 8.0 and dialyzed against 5 mM Tris/HCl pH 8.0.\nBeta-1,3-glucanase activity was measured as described by Dygert et al., Analyt. Biochem., 13:367-374 (1965)."}, "chitinase [2]": {"test_system": "chitinase", "settings": "Burri (1989), average of five ethylene treatments; cited from earlier work"}, "chitinase [3]": {"test_system": "chitinase", "type": "biochemical, Phaseolus vulg. L. cv. saxa", "description": "as §1, §2\nChitinase activity was measured as described by Molano et al. (1977)."}, "beta-1,3-glucanase [4]": {"test_system": "beta-1,3-glucanase", "settings": "Burri (1989), average of five ethylene treatments; cited from earlier work"}, "S. nodorum": {"test_system": "S. nodorum", "assay": "Inhibitory effect of lytic peptides and hydrolytic enzymes against S. nodorum (microtiter plates, liquid pea medium, absorbance at 595 nm)", "type": "cell-based, Septoria nodorum", "description": "Microtiter plates were selected to investigate the inhibitory effect of lytic peptides and hydrolytic enzymes against S. nodorum. Test substances were added to 90 ul liquid pea medium which had been previously inoculated with 2.0×10^4 spores/ml medium of the test pathogen to give a final volume of 100 ul. The blank value of the test substances were determined by adding them to uninoculated liquid pea medium. The plates were evaluated after incubation in a wet chamber at 23° C. on a shaker in the dark for 48 hours.\na. Hydrolytic enzymes were purified from ethylene-treated bean leaves by the procedure described in Example 1.\nb. Lytic peptides: The following antimicrobial peptides were tested at 20 ppm, 60 ppm and 200 ppm concentrations:\nd. Combinations of test substances: Table 3 illustrates the composition of test solutions which were tested in duplicate/triplicate samples.\ne. Evaluation: The growth of the pathogen was recorded by measuring the absorbance of the medium at 595 nm. The average of duplicate/triplicate samples was calculated and the corresponding enzyme blank was subtracted to give the net absorption of the growing mycelium. The inhibitory effect of the test substances used was determined by calculating the growth of the pathogen as a percentage of water control."}},
  "note": "Read-outs that look alike come from different tables or passages of the source.",
  "data": [
    {"compound": "C=C", "note": "[ethylene]", "values": [
      {"measurement": "Specific beta-1,3-glucanase activity", "setting": "beta-1,3-glucanase [1]", "result": 28.72},
      {"measurement": "absolute beta-1,3-glucanase activity", "setting": "beta-1,3-glucanase [1]", "result": 34.21},
      {"measurement": "induction of beta-1,3-glucanase in bean leaves", "setting": "beta-1,3-glucanase [1]", "result": "strong induction"},
      {"measurement": "absolute chitinase activity", "setting": "chitinase [2]", "result": "88.86±6.65", "unit": "nkatal/ml extract"},
      {"measurement": "Specific chitinase activity", "setting": "chitinase [3]", "result": 45.95},
      {"measurement": "absolute chitinase activity", "setting": "chitinase [3]", "result": 54.71},
      {"measurement": "induction of chitinase in bean leaves", "setting": "chitinase [3]", "result": "strong induction"},
      {"measurement": "absolute beta-1,3-glucanase activity", "setting": "beta-1,3-glucanase [4]", "result": "76.00±6.77", "unit": "nkatal/ml extract"}
    ]},
    {"compound": "GIGKFLHSAK KFGKAFVGI MNS [SYNTHETIC PEPTIDE NO. 3]", "values": [
      {"measurement": "FUNGAL GROWTH IN PERCENTAGE OF CONTROL", "setting": "S. nodorum; test solution 5: lytic peptide 20 ppm alone, 48 hours, 23° C.", "result": "80.35 percentage of control"},
      {"measurement": "FUNGAL GROWTH IN PERCENTAGE OF CONTROL", "setting": "S. nodorum; test solution 6: lytic peptide 60 ppm alone, 48 hours, 23° C.", "result": "73.51 percentage of control"},
      {"measurement": "FUNGAL GROWTH IN PERCENTAGE OF CONTROL", "setting": "S. nodorum; test solution 7: lytic peptide 200 ppm alone, 48 hours, 23° C.", "result": "65.96 percentage of control"},
      {"measurement": "FUNGAL GROWTH IN PERCENTAGE OF CONTROL", "setting": "S. nodorum; test solution 12: lytic peptide 20 ppm + chitinase 1/10 c", "result": "68.42 percentage of control"},
      {"measurement": "FUNGAL GROWTH IN PERCENTAGE OF CONTROL", "setting": "S. nodorum; test solution 13: lytic peptide 60 ppm + chitinase 1/10 c", "result": "63.51 percentage of control"},
      {"measurement": "FUNGAL GROWTH IN PERCENTAGE OF CONTROL", "setting": "S. nodorum; test solution 14: lytic peptide 200 ppm + chitinase 1/10 c", "result": "61.75 percentage of control"},
      {"measurement": "FUNGAL GROWTH IN PERCENTAGE OF CONTROL", "setting": "S. nodorum; test solution 15: lytic peptide 20 ppm + chitinase 1/100 c", "result": "77.89 percentage of control"},
      {"measurement": "FUNGAL GROWTH IN PERCENTAGE OF CONTROL", "setting": "S. nodorum; test solution 16: lytic peptide 60 ppm + chitinase 1/100 c", "result": "71.58 percentage of control"},
      {"measurement": "FUNGAL GROWTH IN PERCENTAGE OF CONTROL", "setting": "S. nodorum; test solution 17: lytic peptide 200 ppm + chitinase 1/100 c", "result": "64.21 percentage of control"},
      {"measurement": "FUNGAL GROWTH IN PERCENTAGE OF CONTROL", "setting": "S. nodorum; test solution 18: lytic peptide 20 ppm + beta-1,3-glucanase 1/10 c", "result": "46.67 percentage of control"},
      {"measurement": "FUNGAL GROWTH IN PERCENTAGE OF CONTROL", "setting": "S. nodorum; test solution 19: lytic peptide 60 ppm + beta-1,3-glucanase 1/10 c", "result": "30.88 percentage of control"},
      {"measurement": "FUNGAL GROWTH IN PERCENTAGE OF CONTROL", "setting": "S. nodorum; test solution 20: lytic peptide 200 ppm + beta-1,3-glucanase 1/10 c", "result": "27.89 percentage of control"},
      {"measurement": "FUNGAL GROWTH IN PERCENTAGE OF CONTROL", "setting": "S. nodorum; test solution 21: lytic peptide 20 ppm + beta-1,3-glucanase 1/100 c", "result": "65.26 percentage of control"},
      {"measurement": "FUNGAL GROWTH IN PERCENTAGE OF CONTROL", "setting": "S. nodorum; test solution 22: lytic peptide 60 ppm + beta-1,3-glucanase 1/100 c", "result": "63.51 percentage of control"},
      {"measurement": "FUNGAL GROWTH IN PERCENTAGE OF CONTROL", "setting": "S. nodorum; test solution 23: lytic peptide 200 ppm + beta-1,3-glucanase 1/100 c", "result": "53.68 percentage of control"},
      {"measurement": "FUNGAL GROWTH IN PERCENTAGE OF CONTROL", "setting": "S. nodorum; test solution 24: lytic peptide 20 ppm + chitinase 1/10 c + beta-1,3-glucanase 1/10 c", "result": "9.47 percentage of control"},
      {"measurement": "FUNGAL GROWTH IN PERCENTAGE OF CONTROL", "setting": "S. nodorum; test solution 25: lytic peptide 60 ppm + chitinase 1/10 c + beta-1,3-glucanase 1/10 c", "result": "8.42 percentage of control"},
      {"measurement": "FUNGAL GROWTH IN PERCENTAGE OF CONTROL", "setting": "S. nodorum; test solution 26: lytic peptide 200 ppm + chitinase 1/10 c + beta-1,3-glucanase 1/10 c", "result": "3.86 percentage of control"},
      {"measurement": "FUNGAL GROWTH IN PERCENTAGE OF CONTROL", "setting": "S. nodorum; test solution 27: lytic peptide 20 ppm + chitinase 1/100 c + beta-1,3-glucanase 1/100 c", "result": "40.7 percentage of control"},
      {"measurement": "FUNGAL GROWTH IN PERCENTAGE OF CONTROL", "setting": "S. nodorum; test solution 28: lytic peptide 60 ppm + chitinase 1/100 c + beta-1,3-glucanase 1/100 c", "result": "36.49 percentage of control"},
      {"measurement": "FUNGAL GROWTH IN PERCENTAGE OF CONTROL", "setting": "S. nodorum; test solution 29: lytic peptide 200 ppm + chitinase 1/100 c + beta-1,3-glucanase 1/100 c", "result": "31.23 percentage of control"}
    ]}
  ]
}
